The values below come from publication PMC11436758, “Computer-aided drug design to generate a unique antibiotic family” (Nature Communications, 2024).

This assay concerns the target AcpS (Escherichia coli, UniProt P24224). As to the kind of experiment: AcpS activity against increasing concentration of CoA with and without DNM0547 (mode of inhibition). The format is biochemical. The settings on record: Suppl Fig 2, [AcpS] 5 nM; for V(+Inhibitor): replicates. From the text:
AcpS was chosen as a potential new antibiotic target for several important reasons beyond its high level of conservation across bacterial species. […] We undertook a more in-depth characterization of AcpS inhibition using DNM0547 as the test compound for this antibiotic family. The computer-aided drug design strategy used positions DNM compounds in the active site of AcpS. If DNM0547 is binding to the active site of AcpS competitive inhibition against an AcpS substrate would be predicted.
The acpS gene was amplified from S. aureus and E. coli genomic DNA and inserted into a pET23b vector using standard recombinant DNA methodology such that the protein product would result in addition of a C-terminal 6x-His tag in frame with the AcpS open reading frames. The DNA sequences inserted in the vector were sequenced and found to be identical to the known E. coli and S. aureus acpS open reading frames. Recombinant His-Tagged AcpS expression was induced by IPTG addition and overnight culture. Cell lysate was obtained by sequential aspiration through 16, 18 and 21 G needles in a buffer of 50 mM Tris-HCl (pH 8.5), 10 mM MgCl2, 2 mM DTT, 5% glycerol, and further adjusted to pH 8.1 with MES. […] In a typical AcpS enzyme activity assay, 57 µM [^3H]acetyl-CoA, 2 µg apo-ACP, 10 mM MgCl2, 5 mM DTT, 50 mM Na phosphate (pH 7.0), and AcpS in a final volume of 10 µL were incubated at room temperature in a 1.5 mL microcentrifuge tube. At 5, 10, 15, and 20 min 2 µL of reaction were added to 750 µl 10% TCA on ice. Bovine serum albumin (BSA; 20 µl of a 25 mg/mL solution) was then added to facilitate precipitation of radiolabeled protein. The samples were centrifuged at 12,000 × g for 5 min. Supernatants were removed, and the pellets were rinsed twice with 750 µl of 10% trichloroacetic acid. Pellets were resuspended in 50 µl of formic acid and transferred to scintillation vials. 2 mL of scintillation fluid was added, and the amount of [^3H]-labeled holo-ACP formed was quantified by liquid scintillation counting. The enzymatic reaction proceeded in a linear manner depending on time (10–40 min) and enzyme concentration (1–5 nM). Routinely, each data point was determined at least by triplicate.
Supplementary Figure 2. […] AcpS enzyme activity was […]
determined versus using purified AcpS and increasing concentrations of CoA in the presence and absence of 8 µM DNM0547. Data are the mean values +/ - SD of three separate experiments performed in triplicate from three separate enzyme preparation. GraphPad Prism was used to determine V max and Km values.

Several values for one entry are separate records, joined by “and”; a condition that tells them apart may be missing. Equal entries are not always repeated.

AcpS, sequence (P24224 2-126): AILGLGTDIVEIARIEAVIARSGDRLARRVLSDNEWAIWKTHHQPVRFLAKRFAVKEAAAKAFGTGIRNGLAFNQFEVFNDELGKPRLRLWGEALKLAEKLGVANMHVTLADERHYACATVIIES

As to `CC(C)c1cc(Cl)ccc1-c1cc(-c2nnn[nH]2)c(-c2ccc(Cl)cc2C(C)C)s1` [DNM0547], the “V(+Inhibitor) Mean” value by setting is: (Acetyl CoA 0.06 mM) 20.55 nM/min; (Acetyl CoA 0.24 mM) 101.48 nM/min; (Acetyl CoA 0.48 mM) 125.64 nM/min; (Acetyl CoA […]) 57.60 nM/min. Further, the “V(+Inhibitor)” value runs as follows: (Acetyl CoA 0.06 mM) 19.96 nM/min and 23.46 nM/min and 18.23 nM/min; (Acetyl CoA 0.24 mM) 97.72 nM/min and 105.12 nM/min and 101.61 nM/min; (Acetyl CoA 0.48 mM) 122.32 nM/min and 124.81 nM/min and 129.79 nM/min.
